Laboratory results from patent publication US20240270821A1, “GIP/GLP1/GCG TRI-RECEPTOR AGONISTS AND USES THEREOF” (priority 2023, published 2024).
Read-outs that look alike come from different tables or passages of the source. Starred links: 1 amine or outer side, 2 acyl side, 3 side chain; linkers in the order of their positions; H or OH if unused. Non-standard residues stand in square brackets, D forms with d. Residues, ends and D or L forms follow the SMILES beside them. Groups on a side chain read outwards from the residue. No end group written: not given here. *: point of attachment. C20 diacid = O=C(O)CCCCCCCCCCCCCCCCCCC(=O)*; C18 diacid = O=C(O)CCCCCCCCCCCCCCCCC(=O)*; Phe(4-CN) = N#Cc1ccc(C[C@H](N)C(=O)O)cc1; αMePhe(2-F) = C[C@](N)(Cc1ccccc1F)C(=O)O; γGlu = O=C(O)[C@H](CCC(=O)[*:2])N[*:1]; αMe4Pal = C[C@](N)(Cc1ccncc1)C(=O)O; αMeY = C[C@](N)(Cc1ccc(O)cc1)C(=O)O; 4Pal = N[C@@H](Cc1ccncc1)C(=O)O; αMeL = CC(C)C[C@](C)(N)C(=O)O; αMeS = C[C@](N)(CO)C(=O)O; Orn = NCCC[C@H](N)C(=O)O; AEEA = NCCOCCOCC(=O)O; Aib = CC(C)(N)C(=O)O

What was measured:
Assay type in all cases: cell-based
[1] = target: T1, hGIPR (Homo sapiens, UniProt P48546); assay: Functional cAMP activation in the presence of 0.1% casein (no HSA); conditions: read-out: Relative cAMP EC50, hGIPR;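 also: intracellular cAMP rise after 30 min at 37 °C read by HTRF against a standard curve, scaled between buffer alone (0%) and top control ligand concentration (100%), four-parameter fit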
T1 sequence (P48546 22-466): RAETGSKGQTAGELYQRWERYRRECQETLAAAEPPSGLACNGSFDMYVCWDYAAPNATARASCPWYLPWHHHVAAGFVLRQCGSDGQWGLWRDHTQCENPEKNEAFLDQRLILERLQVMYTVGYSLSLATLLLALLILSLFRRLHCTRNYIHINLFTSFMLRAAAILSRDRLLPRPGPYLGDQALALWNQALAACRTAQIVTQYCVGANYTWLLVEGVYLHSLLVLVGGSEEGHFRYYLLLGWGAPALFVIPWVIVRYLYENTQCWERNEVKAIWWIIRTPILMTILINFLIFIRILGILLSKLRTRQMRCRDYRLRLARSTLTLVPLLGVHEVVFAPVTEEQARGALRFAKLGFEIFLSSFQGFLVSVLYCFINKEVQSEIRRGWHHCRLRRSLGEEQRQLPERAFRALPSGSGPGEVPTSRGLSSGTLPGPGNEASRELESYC

[2] = target: T2, hGLP-1R (Homo sapiens, UniProt P43220); assay: as above; conditions: read-out: Relative cAMP EC50, hGLP-1R;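 also: intracellular cAMP rise after 30 min at 37 °C read by HTRF, normalized between buffer only (0%) and maximal control ligand (100%), four-parameter variable-slope fit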
[3] = target: T1, hGIPR; assay: Functional cAMP activity in the presence of 1% HSA; conditions: read-out: cAMP Rel EC50, hGIPR
[4] = target: T2, hGLP-1R; assay: Functional cAMP activity in the presence of 1% HSA; conditions: read-out: cAMP Rel EC50, hGLP-1R
[5] = target: hGcgR (Homo sapiens, UniProt P47871); assay: Functional cAMP activation in the presence of 0.1% casein (no HSA); conditions: read-out: Relative cAMP EC50, hGcgR;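 also: intracellular cAMP rise after 30 min at 37 °C, read by HTRF against a cAMP standard curve, scaled from buffer only (0%) to maximal control ligand response (100%)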
[6] = target: human GcgR (Homo sapiens, UniProt P47871); assay: Functional cAMP activity in the presence of 1% HSA; conditions: read-out: cAMP Rel EC50, hGcgR
[7] = in the presence of 0.1% casein (no HSA), geometric mean
[8] = in the presence of 0.1% casein (no HSA), geometric mean of relative EC50
[9] = HEK-293 clonal cell line, 1% HSA, geometric mean of relative EC50

T2 sequence (P43220 24-463): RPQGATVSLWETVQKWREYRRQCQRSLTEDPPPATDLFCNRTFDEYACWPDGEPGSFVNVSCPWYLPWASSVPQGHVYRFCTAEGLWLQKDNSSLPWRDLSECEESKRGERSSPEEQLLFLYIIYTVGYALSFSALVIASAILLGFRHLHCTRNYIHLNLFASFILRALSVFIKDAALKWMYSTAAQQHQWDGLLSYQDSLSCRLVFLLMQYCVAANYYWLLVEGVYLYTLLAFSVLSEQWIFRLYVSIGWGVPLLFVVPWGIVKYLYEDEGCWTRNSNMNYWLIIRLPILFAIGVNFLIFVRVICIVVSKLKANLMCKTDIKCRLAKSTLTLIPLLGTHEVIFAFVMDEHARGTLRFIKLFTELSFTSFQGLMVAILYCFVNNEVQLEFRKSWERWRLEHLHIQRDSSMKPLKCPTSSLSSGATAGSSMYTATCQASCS
Chain of human GcgR (P47871 26-477): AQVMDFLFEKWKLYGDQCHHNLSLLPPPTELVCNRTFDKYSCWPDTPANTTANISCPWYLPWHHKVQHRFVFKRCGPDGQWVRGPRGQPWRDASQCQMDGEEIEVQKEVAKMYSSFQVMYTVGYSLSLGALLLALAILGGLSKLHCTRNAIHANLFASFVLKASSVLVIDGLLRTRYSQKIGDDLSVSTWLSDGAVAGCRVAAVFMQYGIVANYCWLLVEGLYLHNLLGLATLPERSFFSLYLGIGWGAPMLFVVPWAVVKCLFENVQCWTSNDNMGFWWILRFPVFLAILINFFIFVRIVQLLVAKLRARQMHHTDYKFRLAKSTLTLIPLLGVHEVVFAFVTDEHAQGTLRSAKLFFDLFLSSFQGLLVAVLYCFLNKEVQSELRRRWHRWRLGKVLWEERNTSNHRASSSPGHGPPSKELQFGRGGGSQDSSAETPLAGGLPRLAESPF
Chain of hGcgR (P47871 26-477): as above

Molecule | EC50 [1, 7] | EC50 [2, 7] | EC50 [3] | EC50 [4] | EC50 [5, 7] | EC50 [6] | EC50 [1] | EC50 [2] | EC50 [5] | EC50 [1, 8] | EC50 [2, 8] | EC50 [3, 9] | EC50 [4, 9] | EC50 [5, 8] | EC50 [6, 9]
H-Y[Aib]QGTFTSD[4Pal]SQ[αMeL]LD[Orn]K([AEEA-γGlu-C18 diacid])AQ[αMe4Pal]AFIEYLIA[Aib]GPSSGEPPPSGSEE-NH2 [Example 1095] | 0.065 nM | 1.17 nM | 8.73 nM | 159 nM | 2.75 nM | 337 nM | – | – | – | – | – | – | – | – | –
H-Y[Aib]QGTFTSD[4Pal]SK[αMeL]LDKK([AEEA-γGlu-C18 diacid])AQ[αMe4Pal]AFIEYLIE[Aib]GPSSGAPPPSGS-NH2 [Example 915] | 0.0988 nM | 1.5 nM | 15.3 nM | 226 nM | 0.882 nM | 174 nM | – | – | – | – | – | – | – | – | –
Y[Aib]QGT[αMePhe(2-F)]TSD[4Pal][αMeS]I[αMeL]LD[Orn]K([AEEA-γGlu-C18 diacid])YQ[αMe4Pal]EFI[dE][αMeY]LVEGGPSSGAPPPSGS-NH2 [Example 767] | – | – | 1.51 nM | 56.8 nM | – | 207 nM | 0.00792 nM | 0.299 nM | 1.13 nM | – | – | – | – | – | –
H-Y[Aib]QGTFTSDFSK[αMeL]LDKK([AEEA-γGlu-C20 diacid])AQ[Aib]AFIEYLLEGAPSSGAPPPSEG-NH2 [Example 47] | 0.388 nM | 3.4 nM | 154 nM | 1270 nM | 5.61 nM | 2140 nM | – | – | – | – | – | – | – | – | –
H-Y[Aib]QGTFTSD[4Pal]S[Orn][αMeL]LDKK([γGlu-γGlu-C18 diacid])AQ[αMe4Pal]AFIEYLIAGGPSSGEPPPSGTEE-NH2 [Example 981] | 0.243 nM | 4.45 nM | 21.1 nM | 330 nM | 3.7 nM | 477 nM | – | – | – | – | – | – | – | – | –
H-Y[Aib]QGT[αMePhe(2-F)]TSDYSILLDKK([γGlu-γGlu-C18 diacid])AQ[Aib]AFIEYLEEGGPSSGAPPPEEG-NH2 [Example 471] | – | – | 5.45 nM | 37.9 nM | – | 181 nM | 0.0296 nM | 0.317 nM | 2.19 nM | – | – | – | – | – | –
H-Y[Aib]QGT[αMePhe(2-F)]TSD[Phe(4-CN)]SILLDKQAQK([AEEA-AEEA-γGlu-C20 diacid])AFIQYLLEGGPSSGEPPPSEG-NH2 [Example 353] | 0.127 nM | 0.634 nM | 53.7 nM | 222 nM | 11 nM | 3080 nM | – | – | – | – | – | – | – | – | –
H-Y[Aib]QGT[αMePhe(2-F)]TSD[4Pal]SI[αMeL]LD[Orn]K([AEEA-γGlu-C18 diacid])AQ[Aib][Orn]FIEYLIEGGPSSGEPPPSEG-NH2 [Example 489] | – | – | 1.25 nM | 11.8 nM | – | 523 nM | 0.0121 nM | 0.172 nM | 2.31 nM | – | – | – | – | – | –
H-Y[Aib]QGT[αMePhe(2-F)]TSD[Phe(4-CN)]SKLLDKIAQK([AEEA-γGlu-C20 diacid])AFIEYLIEGGPSSGAPPPSGS-NH2 [Example 363] | 0.375 nM | 1.47 nM | 91.8 nM | 217 nM | 13.6 nM | 4080 nM | – | – | – | – | – | – | – | – | –
H-Y[Aib]QGT[αMePhe(2-F)]TSD[4Pal][αMeS]ILLD[Orn]K([γGlu-γGlu-C18 diacid])AQ[Aib][Orn]FI[dE]YLIEGGPSSGEPPPEGTEE-NH2 [Example 556] | – | – | 5.51 nM | 47.4 nM | – | 366 nM | 0.0866 nM | 0.561 nM | 4.14 nM | – | – | – | – | – | –
H-Y[Aib]QGTFTSD[4Pal]S[Orn][αMeL]LD[Orn]K([γGlu-γGlu-C18 diacid])AQ[αMe4Pal]EFIE[αMeY]LLEGGPSSGAPPPSGSEE-NH2 [Example 976] | 0.441 nM | 21.8 nM | 82.7 nM | 2860 nM | 8.75 nM | 848 nM | – | – | – | – | – | – | – | – | –
H-Y[Aib]QGTFTSD[4Pal]SQ[αMeL]LDKK([dE-γGlu-C18 diacid])AQ[αMe4Pal]AFIEYLIAGGPSSGAPPPSGE-NH2 [Example 1085] | 0.0827 nM | 1.28 nM | 9.84 nM | 188 nM | 11.6 nM | 1370 nM | – | – | – | – | – | – | – | – | –
Y[Aib]QGT[αMePhe(2-F)]TSD[4Pal]SI[αMeL]LD[Orn]K([AEEA-AEEA-γGlu-C18 diacid])AQ[αMe4Pal]EFI[dE][αMeY]LLEGGPSSGAPPPSGE-NH2 [Example 613] | – | – | 0.791 nM | 81.6 nM | – | 1410 nM | 0.00925 nM | 0.698 nM | 20.4 nM | – | – | – | – | – | –
Y[Aib]QGT[αMePhe(2-F)]TSD[4Pal][αMeS]I[αMeL]LD[Orn]K([γGlu-γGlu-C18 diacid])AQ[αMe4Pal]EFI[dE][αMeY]LIEGGPSSGEPPPEGGGE-NH2 [Example 762] | – | – | 0.692 nM | 27.6 nM | – | 119 nM | 0.00882 nM | 0.273 nM | 3.09 nM | – | – | – | – | – | –
CC[C@H](C)[C@H](NC(=O)[C@H](Cc1ccccc1)NC(=O)[C@H](C)NC(=O)C(C)(C)NC(=O)[C@H](CCC(N)=O)NC(=O)[C@H](C)NC(=O)[C@H](CCCCNC(=O)COCCOCCNC(=O)CC[C@H](NC(=O)CCCCCCCCCCCCCCCCC(=O)O)C(=O)O)NC(=O)[C@H](CCCCN)NC(=O)[C@H](CC(=O)O)NC(=O)[C@H](CC(C)C)NC(=O)[C@](C)(CC(C)C)NC(=O)[C@@H](NC(=O)[C@H](CO)NC(=O)[C@H](Cc1ccc(O)cc1)NC(=O)[C@H](CC(=O)O)NC(=O)[C@H](CO)NC(=O)[C@@H](NC(=O)[C@](C)(Cc1ccccc1F)NC(=O)[C@@H](NC(=O)CNC(=O)[C@H](CCC(N)=O)NC(=O)C(C)(C)NC(=O)[C@@H](N)Cc1ccc(O)cc1)[C@@H](C)O)[C@@H](C)O)[C@@H](C)CC)C(=O)N[C@@H](CCC(=O)O)C(=O)N[C@@H](Cc1ccc(O)cc1)C(=O)N[C@@H](CC(C)C)C(=O)N[C@@H](CCC(=O)O)C(=O)N[C@@H](CCC(=O)O)C(=O)NCC(=O)NCC(=O)N1CCC[C@H]1C(=O)N[C@@H](CO)C(=O)N[C@@H](CO)C(=O)NCC(=O)N[C@@H](C)C(=O)N1CCC[C@H]1C(=O)N1CCC[C@H]1C(=O)N1CCC[C@H]1C(=O)N[C@@H](CO)C(N)=O [Example 421] (H-Y[Aib]QGT[αMePhe(2-F)]TSDYSI[αMeL]LDKK([AEEA-γGlu-C18 diacid])AQ[Aib]AFIEYLEEGGPSSGAPPPS-NH2) | – | – | 2.98 nM | 31.9 nM | – | 468 nM | 0.0132 nM | 0.21 nM | 3.25 nM | – | – | – | – | – | –
H-Y[Aib]QGT[αMePhe(2-F)]TSD[4Pal]SI[αMeL]LDKK([γGlu-γGlu-C18 diacid])AQ[Aib][Orn]FIEYLTEGGPSSGEPPPEGSEE-NH2 [Example 652] | – | – | – | – | – | – | – | – | – | 0.0342 nM | 0.426 nM | 1.92 nM | 26.8 nM | 15.3 nM | 764 nM
H-Y[Aib]QGT[αMePhe(2-F)]TSD[4Pal][αMeS]I[αMeL]LD[Orn]K([AEEA-γGlu-C18 diacid])AA[Aib]EFI[dE][αMeY]LIEGGPSSGAPPPSG[dE]-NH2 [Example 721] | – | – | 1.19 nM | 27.1 nM | – | 183 nM | 0.00774 nM | 0.233 nM | 1.78 nM | – | – | – | – | – | –
